Experiment [1] has as its target T1, Breast cancer type 1 susceptibility protein (Homo sapiens, UniProt P38398). The experiment is described as follows: Affinity Biochemical interaction: (ITC) EUB0002518a BRCA1. Further details: mode of action Inhibitor, recommended concentration 1 uM.
The target in experiment [2] is T1, Breast cancer type 1 susceptibility protein. The experiment is described as follows: Affinity Biochemical interaction: (Fluorescence polarisation assay) EUB0002518a BRCA1. The class given is functional. Further details: mode of action Inhibitor, recommended concentration 1 uM. (Polarisation of emitted light reports the rotation of a fluorescent probe.)
The target in experiment [3] is Ubiquitin carboxyl-terminal hydrolase 14 (Homo sapiens, UniProt P54578).
A further experiment addresses Procathepsin L (Homo sapiens, UniProt P07711). The experiment is described as follows: Affinity Biochemical interaction: (enzymatic assay (fluorogenic substrate cleavage)) EUB0002529a CTSL. The class given is functional. Further details: mode of action Inhibitor, recommended concentration 1 uM.
For experiment [4], the target named is Triacylglycerol hydrolase DDHD2 (Homo sapiens, UniProt O94830). The experiment is described as follows: Affinity Biochemical interaction: (Gel-based competitive activity-based protein profiling with HT-01 probe and membranes) EUB0002612a DDHD2. The format is functional, cell membranes. More on the design: mode of action Inhibitor, recommended concentration 1 uM.

Experiment [5] has as its target T2, Chromobox protein homolog 8 (Homo sapiens, UniProt Q9HC52).
T2 sequence (Q9HC52 whole entry): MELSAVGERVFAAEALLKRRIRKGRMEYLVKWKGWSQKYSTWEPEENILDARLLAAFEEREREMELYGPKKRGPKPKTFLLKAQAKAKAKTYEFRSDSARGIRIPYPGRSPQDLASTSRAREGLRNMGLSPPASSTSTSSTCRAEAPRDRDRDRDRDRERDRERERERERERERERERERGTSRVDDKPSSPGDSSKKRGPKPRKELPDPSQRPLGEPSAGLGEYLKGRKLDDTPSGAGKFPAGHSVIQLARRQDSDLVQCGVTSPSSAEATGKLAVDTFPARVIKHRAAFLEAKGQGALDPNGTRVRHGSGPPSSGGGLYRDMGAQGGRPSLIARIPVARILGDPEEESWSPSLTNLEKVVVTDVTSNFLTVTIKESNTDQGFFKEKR
The experiment is described as follows: Affinity Biochemical interaction: (MST (fluorescein-conjugated)) EUB0002326a CBX8. Further details: mode of action Inhibitor, recommended concentration 1 uM.

For experiment [6], the target named is T2, Chromobox protein homolog 8. The experiment is described as follows: Affinity Biochemical interaction: (Fluorescence polarisation (fluorescein conjugated)) EUB0002326a CBX8. The format is functional. More on the design: mode of action Inhibitor, recommended concentration 1 uM.
Experiment [7] has the same target. The experiment is described as follows: Affinity Biochemical interaction: (Thermal Shift Assay) EUB0002326a CBX8. More on the design: mode of action Inhibitor, recommended concentration 1 uM.
The target of experiment [8] is 3',5'-cyclic-AMP phosphodiesterase 4A (Homo sapiens, UniProt P27815). The experiment is described as follows: Affinity Biochemical interaction: (fluorescence polarisation assay, inhibition of enzyme activity) EUB0002577a PDE4A. More on the design: mode of action Inhibitor, recommended concentration 1 uM. The format is functional.
Experiment [9] addresses 3',5'-cyclic-AMP phosphodiesterase 4C (Homo sapiens, UniProt Q08493). The experiment is described as follows: Affinity Biochemical interaction: (fluorescence polarisation assay, inhibition of enzyme activity) EUB0002577a PDE4C. The class given is functional. More on the design: mode of action Inhibitor, recommended concentration 1 uM.
In experiment [10] the target is T3, Equilibrative nucleoside transporter 1 (Homo sapiens, UniProt Q99808). The experiment is described as follows: Affinity Biochemical interaction: (radioligand binding assay, inhibition of [3H]S-(4-Nitrobenzyl)-6-thioinosine binding to target) EUB0002560a SLC29A1. More on the design: mode of action Inhibitor, recommended concentration 1 uM.
For experiment [11], the target named is T3, Equilibrative nucleoside transporter 1. The experiment is described as follows: Affinity Biochemical interaction: (inhibition of [3H]nitrobenzylthioinosine binding to SLC29A1 in membranes) EUB0002560a SLC29A1. The format is cell membranes. More on the design: mode of action Inhibitor, recommended concentration 1 uM.
For a further experiment, the target named is Histone deacetylase 2 (Homo sapiens, UniProt Q92769). The experiment is described as follows: Affinity Biochemical interaction: (fluorometric activity assay) EUB0002519a HDAC2. The format is functional. Further details: mode of action Inhibitor, recommended concentration 1 uM.
For a further experiment, the target named is Histone deacetylase 1 (Homo sapiens, UniProt Q13547). The experiment is described as follows: Affinity Biochemical interaction: (fluorometric activity assay) EUB0002519a HDAC1. The class given is functional. Further details: mode of action Inhibitor, recommended concentration 1 uM.
The target of the next experiment is Adenosine kinase (Homo sapiens, UniProt P55263). The experiment is described as follows: Affinity Biochemical interaction: (radiochemical assay, inhibition of AK activity in cell supernatants) EUB0002485aCl ADK. The format is functional, subcellular. Further details: mode of action Inhibitor, recommended concentration 1 uM.
Experiment [12] addresses Protein-arginine deiminase type-4 (Homo sapiens, UniProt Q9UM07). The experiment is described as follows: Affinity Biochemical interaction: (enzyme inhibition, detection of citrullated histone H3 by either immunoblot with LiC or quantitation or an ELISA-based assay using anti-citrullated histone H3 rabbit polyclonal antibody) EUB0002517a PADI4. The format is functional. Further details: mode of action Inhibitor, recommended concentration 1 uM. On the technique in general: In western blotting, separated proteins are transferred to a membrane and probed.

In experiment [13] the target is T4, Protein arginine N-methyltransferase 5 (Homo sapiens, UniProt O14744). The experiment is described as follows: Affinity Biochemical interaction: (inhibition of histone H4 methylation) EUB0002319a PRMT5. The class given is functional. Further details: mode of action Inhibitor, recommended concentration 1 uM.
In experiment [14] the target is T5, Histone-lysine N-methyltransferase SETD7 (Homo sapiens, UniProt Q8WTS6). The experiment is described as follows: Affinity Biochemical interaction: (inhibition of histone H3(1-21) methylation) EUB0002319a SETD7. The format is functional. Further details: mode of action Inhibitor, recommended concentration 1 uM.
Experiment [15] deals with T4, Protein arginine N-methyltransferase 5. The experiment is described as follows: Affinity Biochemical interaction: (inhibition of histone H4 (1-21) methylation) EUB0002319a PRMT5. More on the design: mode of action Inhibitor, recommended concentration 1 uM. The class given is functional.
Experiment [16] deals with T5, Histone-lysine N-methyltransferase SETD7. The experiment is described as follows: Affinity Biochemical interaction: (inhibition of histone H3 methylation) EUB0002319a SETD7. The class given is functional. More on the design: mode of action Inhibitor, recommended concentration 1 uM.
The target in experiment [17] is T6, Bromodomain-containing protein 2 (Homo sapiens, UniProt P25440). The experiment is described as follows: (§1) Affinity Biochemical interaction: (BROMOscan assay) EUB0002282a BRD2. Further details: mode of action Inhibitor, recommended concentration 1 uM.
Experiment [18] addresses T7, Bromodomain-containing protein 4 (Homo sapiens, UniProt O60885). The experiment is described as follows: (§2) Affinity Biochemical interaction: (AlphaLISA) EUB0002282a BRD4. The class given is functional. More on the design: mode of action Inhibitor, recommended concentration 1 uM.
The target of experiment [19] is Bromodomain testis-specific protein (Homo sapiens, UniProt Q58F21). The experiment is described as follows: Affinity Biochemical interaction: (BROMOscan assay) EUB0002282a BRDT. Further details: mode of action Inhibitor, recommended concentration 1 uM.
Experiment [20] deals with T6, Bromodomain-containing protein 2. The description is as §1. Further details: mode of action Inhibitor, recommended concentration 1 uM. The source holds these as a separate data set.
Experiment [21] addresses T7, Bromodomain-containing protein 4. Described as §2. The class given is functional. Further details: mode of action Inhibitor, recommended concentration 1 uM. The source holds these as a separate data set.
In experiment [22] the target is T8, Bromodomain-containing protein 3 (Homo sapiens, UniProt Q15059). The experiment is described as follows: (§3) Affinity Biochemical interaction: (BROMOscan assay) EUB0002282a BRD3. Further details: mode of action Inhibitor, recommended concentration 1 uM.
Experiment [23] concerns the target T8, Bromodomain-containing protein 3. Described as §3. Further details: mode of action Inhibitor, recommended concentration 1 uM. This is another data set of the same source.

Non-standard residues stand in square brackets, D forms with d. Residues, ends and D or L forms follow the SMILES beside them. *: point of attachment. Benzoyl(4-OPh) = O=C(c1ccc(Oc2ccccc2)cc1)*; Lys(Et2) = CCN(CC)CCCC[C@H](N)C(=O)O; d(aIle) = CC[C@H](C)[C@@H](N)C(=O)O; Gly(cPent) = N[C@H](C(=O)O)C1CCCC1; NH(propargyl) = C#CCN*

T3 sequence (Q99808 whole entry): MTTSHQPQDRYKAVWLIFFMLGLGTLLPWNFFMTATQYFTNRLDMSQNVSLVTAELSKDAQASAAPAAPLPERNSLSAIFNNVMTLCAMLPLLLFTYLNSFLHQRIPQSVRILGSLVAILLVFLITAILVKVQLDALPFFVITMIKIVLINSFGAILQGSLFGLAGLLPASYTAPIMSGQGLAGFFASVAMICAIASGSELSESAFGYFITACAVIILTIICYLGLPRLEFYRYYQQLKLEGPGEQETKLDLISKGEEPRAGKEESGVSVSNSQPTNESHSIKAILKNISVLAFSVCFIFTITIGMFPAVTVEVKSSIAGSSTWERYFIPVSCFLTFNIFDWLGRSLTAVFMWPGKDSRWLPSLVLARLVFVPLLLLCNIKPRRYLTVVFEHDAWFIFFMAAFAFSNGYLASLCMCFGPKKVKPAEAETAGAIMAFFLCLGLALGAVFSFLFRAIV
T1 sequence (P38398 whole entry): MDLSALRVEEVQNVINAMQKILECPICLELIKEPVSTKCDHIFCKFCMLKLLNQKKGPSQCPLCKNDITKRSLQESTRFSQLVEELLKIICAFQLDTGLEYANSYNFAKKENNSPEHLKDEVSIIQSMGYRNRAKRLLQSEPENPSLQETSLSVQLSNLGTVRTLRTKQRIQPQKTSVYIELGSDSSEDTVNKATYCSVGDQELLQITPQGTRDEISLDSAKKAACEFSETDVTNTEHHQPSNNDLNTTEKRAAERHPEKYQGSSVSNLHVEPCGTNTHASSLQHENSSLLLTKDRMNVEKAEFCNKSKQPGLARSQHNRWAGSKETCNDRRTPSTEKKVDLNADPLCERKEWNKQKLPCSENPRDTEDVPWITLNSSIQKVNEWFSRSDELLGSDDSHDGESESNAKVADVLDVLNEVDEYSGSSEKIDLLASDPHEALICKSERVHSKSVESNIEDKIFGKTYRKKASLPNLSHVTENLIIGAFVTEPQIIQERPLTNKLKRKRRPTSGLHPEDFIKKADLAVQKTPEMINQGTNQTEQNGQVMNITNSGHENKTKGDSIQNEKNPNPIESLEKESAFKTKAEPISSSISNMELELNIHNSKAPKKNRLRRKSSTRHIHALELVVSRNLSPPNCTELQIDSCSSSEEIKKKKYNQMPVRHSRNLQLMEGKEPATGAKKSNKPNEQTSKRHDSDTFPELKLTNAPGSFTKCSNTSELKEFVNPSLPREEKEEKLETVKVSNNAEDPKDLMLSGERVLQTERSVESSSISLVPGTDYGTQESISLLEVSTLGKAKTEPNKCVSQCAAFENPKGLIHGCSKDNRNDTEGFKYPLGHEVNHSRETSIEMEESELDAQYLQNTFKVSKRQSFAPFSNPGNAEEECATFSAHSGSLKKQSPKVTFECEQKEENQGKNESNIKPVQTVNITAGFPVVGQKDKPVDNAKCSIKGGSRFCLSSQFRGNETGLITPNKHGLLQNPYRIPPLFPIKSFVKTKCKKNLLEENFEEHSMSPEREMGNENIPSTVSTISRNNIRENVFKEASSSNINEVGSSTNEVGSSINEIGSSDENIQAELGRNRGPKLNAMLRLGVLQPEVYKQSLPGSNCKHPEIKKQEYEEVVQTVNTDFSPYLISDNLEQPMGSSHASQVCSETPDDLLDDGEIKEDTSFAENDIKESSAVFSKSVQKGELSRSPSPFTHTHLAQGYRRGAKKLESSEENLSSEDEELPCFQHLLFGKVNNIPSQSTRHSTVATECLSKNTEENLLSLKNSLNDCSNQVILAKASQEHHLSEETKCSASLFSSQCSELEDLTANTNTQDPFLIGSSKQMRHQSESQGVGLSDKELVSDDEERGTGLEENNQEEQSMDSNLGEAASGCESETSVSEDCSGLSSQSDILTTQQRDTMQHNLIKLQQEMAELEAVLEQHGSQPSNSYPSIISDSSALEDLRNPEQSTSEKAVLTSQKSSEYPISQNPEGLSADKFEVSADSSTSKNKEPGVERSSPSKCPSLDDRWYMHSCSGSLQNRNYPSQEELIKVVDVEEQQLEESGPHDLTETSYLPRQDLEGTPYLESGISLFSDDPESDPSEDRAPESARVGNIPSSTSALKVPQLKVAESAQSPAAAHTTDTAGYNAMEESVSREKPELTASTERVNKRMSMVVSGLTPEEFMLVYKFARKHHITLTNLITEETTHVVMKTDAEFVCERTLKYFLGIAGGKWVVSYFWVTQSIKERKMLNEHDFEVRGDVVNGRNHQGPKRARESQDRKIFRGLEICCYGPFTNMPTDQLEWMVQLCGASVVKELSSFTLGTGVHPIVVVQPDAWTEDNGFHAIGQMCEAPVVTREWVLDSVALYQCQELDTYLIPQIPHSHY
T5 sequence (Q8WTS6 whole entry): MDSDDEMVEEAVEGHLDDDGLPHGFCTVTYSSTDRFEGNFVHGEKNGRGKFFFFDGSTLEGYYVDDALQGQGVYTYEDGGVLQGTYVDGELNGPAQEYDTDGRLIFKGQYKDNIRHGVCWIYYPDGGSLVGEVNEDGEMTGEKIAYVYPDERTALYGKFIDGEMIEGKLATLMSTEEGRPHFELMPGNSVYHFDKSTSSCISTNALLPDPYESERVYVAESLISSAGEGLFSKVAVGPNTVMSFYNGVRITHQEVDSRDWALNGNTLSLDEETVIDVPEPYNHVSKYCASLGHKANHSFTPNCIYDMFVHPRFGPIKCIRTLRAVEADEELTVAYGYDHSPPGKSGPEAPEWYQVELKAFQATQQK
T6 sequence (P25440 whole entry): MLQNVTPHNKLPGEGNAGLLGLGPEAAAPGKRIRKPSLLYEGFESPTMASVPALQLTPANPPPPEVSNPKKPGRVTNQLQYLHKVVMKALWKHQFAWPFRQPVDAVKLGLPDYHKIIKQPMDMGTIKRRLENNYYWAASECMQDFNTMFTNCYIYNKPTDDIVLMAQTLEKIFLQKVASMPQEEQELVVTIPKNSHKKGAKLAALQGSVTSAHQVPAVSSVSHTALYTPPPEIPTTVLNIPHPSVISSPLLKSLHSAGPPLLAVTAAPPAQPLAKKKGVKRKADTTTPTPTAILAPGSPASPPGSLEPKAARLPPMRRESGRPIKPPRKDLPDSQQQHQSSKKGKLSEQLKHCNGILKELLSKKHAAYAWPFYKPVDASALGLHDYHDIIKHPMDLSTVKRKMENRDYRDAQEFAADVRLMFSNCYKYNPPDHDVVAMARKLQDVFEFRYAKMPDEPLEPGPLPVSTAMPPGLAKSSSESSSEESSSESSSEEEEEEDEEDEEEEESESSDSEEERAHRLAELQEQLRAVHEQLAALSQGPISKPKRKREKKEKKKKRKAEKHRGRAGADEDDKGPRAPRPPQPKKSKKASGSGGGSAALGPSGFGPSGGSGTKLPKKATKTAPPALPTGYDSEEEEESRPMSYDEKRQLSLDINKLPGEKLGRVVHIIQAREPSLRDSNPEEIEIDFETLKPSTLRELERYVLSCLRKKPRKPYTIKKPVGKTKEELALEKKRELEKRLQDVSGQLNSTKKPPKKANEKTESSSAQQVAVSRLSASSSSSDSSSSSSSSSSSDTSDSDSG
T8 sequence (Q15059 whole entry): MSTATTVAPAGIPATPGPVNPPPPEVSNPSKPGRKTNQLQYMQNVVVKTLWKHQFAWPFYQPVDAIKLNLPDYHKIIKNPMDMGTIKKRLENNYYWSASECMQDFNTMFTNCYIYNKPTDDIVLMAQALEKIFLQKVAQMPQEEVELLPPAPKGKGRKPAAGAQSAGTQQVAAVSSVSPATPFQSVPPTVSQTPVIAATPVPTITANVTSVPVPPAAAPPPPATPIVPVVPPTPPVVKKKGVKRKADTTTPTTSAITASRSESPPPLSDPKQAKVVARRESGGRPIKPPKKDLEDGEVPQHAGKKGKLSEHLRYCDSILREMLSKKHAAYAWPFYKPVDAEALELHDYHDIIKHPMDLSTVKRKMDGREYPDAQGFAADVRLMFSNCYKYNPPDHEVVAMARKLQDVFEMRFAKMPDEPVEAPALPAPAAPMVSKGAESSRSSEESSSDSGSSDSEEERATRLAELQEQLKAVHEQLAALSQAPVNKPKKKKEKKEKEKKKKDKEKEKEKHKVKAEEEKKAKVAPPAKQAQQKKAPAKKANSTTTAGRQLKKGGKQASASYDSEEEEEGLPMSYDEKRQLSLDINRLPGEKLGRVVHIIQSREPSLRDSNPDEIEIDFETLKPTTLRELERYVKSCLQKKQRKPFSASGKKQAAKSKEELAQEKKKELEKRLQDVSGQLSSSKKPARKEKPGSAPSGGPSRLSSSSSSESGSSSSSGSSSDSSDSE
T4 sequence (O14744 whole entry): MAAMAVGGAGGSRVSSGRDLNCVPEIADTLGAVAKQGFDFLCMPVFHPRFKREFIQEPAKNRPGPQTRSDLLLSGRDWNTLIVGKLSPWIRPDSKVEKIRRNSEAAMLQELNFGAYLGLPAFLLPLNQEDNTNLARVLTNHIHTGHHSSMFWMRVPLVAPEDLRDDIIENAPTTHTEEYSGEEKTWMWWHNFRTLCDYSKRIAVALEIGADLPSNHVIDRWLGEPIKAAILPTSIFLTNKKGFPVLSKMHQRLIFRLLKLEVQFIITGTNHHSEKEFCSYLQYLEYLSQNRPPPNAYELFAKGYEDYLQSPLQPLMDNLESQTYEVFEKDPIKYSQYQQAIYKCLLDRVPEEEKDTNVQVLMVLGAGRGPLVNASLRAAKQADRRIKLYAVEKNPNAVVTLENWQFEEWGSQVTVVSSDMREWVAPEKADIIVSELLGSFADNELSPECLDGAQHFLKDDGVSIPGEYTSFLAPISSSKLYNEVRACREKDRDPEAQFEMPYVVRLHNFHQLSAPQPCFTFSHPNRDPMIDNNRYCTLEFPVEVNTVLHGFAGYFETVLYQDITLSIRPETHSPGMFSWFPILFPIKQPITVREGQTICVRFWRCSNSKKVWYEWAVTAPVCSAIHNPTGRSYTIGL

Regarding `O=C(CNC(=O)[C@H](COP(=O)(O)O)NC(=O)CCc1c[nH]c2ccccc12)NCCCCc1ccccc1`, the Kd (in general, the concentration at which binding is half-saturated) in [1] turned out to be 300 nM. Besides, the IC50 (as a rule, the concentration needed to halve the response being measured) in experiment [2] was 310 nM.

Compound `Cc1cc(C(=O)CN2CCCCC2)c(C)n1-c1ccc(Cl)cc1` had an IC50 in [3] of 600 nM.

As for `Cn1nc(C(C)(C)C)cc1C(=O)NC(Cc1cccc(Cl)c1)C(=O)NCC#N` (configuration not stated), the affinity on Procathepsin L, expressed as Ki, was 82 nM.

The compound `O=C(N(CCc1ccccc1)C1CCCCC1)n1ncc(-c2ccc(OC(F)(F)F)cc2)n1` displayed an IC50 in experiment [4] of 1.3 nM.

Take `C#CCNC(=O)[C@H](CO)NC(=O)[C@H](CCCCN(CC)CC)NC(=O)[C@H](NC(=O)[C@@H](NC(=O)c1ccc(Oc2ccccc2)cc1)C1CCCC1)[C@@H](C)CC` ({Benzoyl(4-OPh)}-[Gly(cPent)][d(aIle)][Lys(Et2)]S-{NH(propargyl)}): the results for the Kd in experiment [5], in [6] and in experiment [7] were 700 nM, 800 nM and 500 nM, respectively.

As for `CC(C)NC(=O)c1ccc(OC(F)F)c(OCC2CC2)c1`, the IC50 in [8] was 113 nM; in experiment [9] it was 164 nM.

As for `NC(=O)C1CN(CCCCC(c2ccc(F)cc2)c2ccc(F)cc2)CCN1CC(=O)Nc1c(Cl)cc(N)cc1Cl` (configuration not stated) [DRAFLAZINE], the Ki (commonly a dissociation constant, usually derived from enzyme kinetics or from competition with a known ligand) stood at 0.94 nM in experiment [10] and 0.28 nM in experiment [11].

Take `Nc1ccc(-c2cccs2)cc1NC(=O)c1ccc(NC=O)cc1`: the IC50 against Histone deacetylase 2 was found to be 100 nM; against Histone deacetylase 1, 40 nM.

At Adenosine kinase, `Nc1ncnc2nc(-c3ccc(N4CCOCC4)nc3)cc(-c3cccc(Br)c3)c12` registered an IC50 of 3 nM.

Take `COc1cc(C(=O)N2C[C@H](N)CC[C@@H]2C)cc2nc(-c3cc4cccnc4n3CC3CC3)n(C)c12`: the IC50 in [12] came out at 98 nM.

As for `Nc1ncnc2c1ncn2[C@@H]1O[C@H](C[C@@H](N)CC[C@H](N)C(=O)O)[C@@H](O)[C@H]1O` [SINEFUNGIN], the IC50 in [13] came out at 690 nM; in experiment [14], 2380 nM; in [15], 310 nM; in [16], 9.1 µM.

On to `Cc1cc(-c2ccc3nc(C4CCOCC4)n(CCOC(F)(F)F)c3c2)cn(C)c1=O`, for which the Kd in experiment [17] stood at 3.2 nM; in experiment [18], 6.5 nM; in experiment [19] it was 3.1 nM; in experiment [20] it was 5.2 nM; in experiment [21], 7.6 nM; in experiment [22] it was 2.3 nM. In addition, binding in experiment [23] was characterised by a dissociation constant (Kd) of 2.9 nM.
